Columns and labels:
Format in all cases: cell-based, Dickeya dadantii 3937 (Ech3937)
[1] = system: hrpL promoter; test: hrpL promoter activity, GFP reporter plasmid phrpL, flow cytometry (FACS)
Description: (§1) FACS analysis of promoter activity of dspE, hrpA, hrpL, hrpN, and hrpS was carried out as described (Peng et al., 2006). Briefly, the wild-type Ech3937 and the mutant strains carrying the promoter reporter plasmid were grown on LB broth at 28° C. overnight and transferred to appropriate media. For FACS analysis, samples were collected by centrifugation, washed with 1× phosphate buffer saline (PBS) at 13,000 rpm for 1 min, and re-suspended in 1×PBS to ca 10^6 CFU/ml prior to being run in a FACS Calibur flow cytometer (BD Biosciences, CA). Three replicates were performed for each treatment.
(§2) Since OCA and TCA induced the expression of hrpN, the effect of these two phenolic compounds on the expression of hrpA, hrpL, and hrpS was investigated further. […] GFP intensity was determined on gated populations of bacterial cells by flow cytometry and analyzed with the Cell Quest software (BD Biosciences, San Jose, Calif.). The lines labeled “1” stand for the GFP expression control base level of the Ech3937 containing pPROBE-AT vector; lines labeled “2” stand for the promoter activity of hrpS, hrpL, hrpA and hrpN in Ech3937 in MM; lines labeled “3” stand for the promoter activity of Ech3937 in MM supplemented with 0.1 mM OCA; lines labeled “4” stand for the promoter activity of hrpL mutant WPP96 in MM; lines labeled “5” stand for the promoter activity of hrpL mutant WPP96 in MM supplemented with 0.1 mM OCA. Values are representative of at least two experiments. […] Compared with MM alone, the average GFP fluorescence intensity of bacterial cells of Ech3937 (phrpA) was doubled when 0.1 mM of OCA and TCA were added to the medium (Table 4; FIG. 3). […] The mrp, whose protein product has an ATPase conserved domain (2e-06), was used as a reference gene in this study.

[2] = system: hrpS promoter; test: hrpS promoter activity, GFP reporter plasmid phrpS, flow cytometry (FACS)
Description: as §1, §2

[3] = system: mrp promoter; test: mrp (reference gene) promoter activity, GFP reporter pmrp, flow cytometry (FACS); conditions: for GFP intensity (Mean Fluorescence Intensity) of Ech3937 (pmrp): reference gene
Description: as §1, §2

[4] = system: pPROBE-AT vector; test: GFP expression control base level, pPROBE-AT vector, flow cytometry (FACS)
Description: as §1, §2

[5] = system: hrpY mRNA; test: qRT-PCR relative mRNA level of hrpY; conditions: MM supplemented with OCA, p>0.5 (FIG. 4)
Description: (§3) Bacterial strains were grown in MM. Total RNA from the bacterial cells was isolated by using the TRI reagent method (Sigma, Mo.) and treated with Turbo DNA-free DNase kits (Ambion, TX) as described (Peng et al., 2006). An iScript cDNA Synthesis Kit (Bio-Rad, CA) was used to synthesize cDNA from 0.5 μg of treated total RNA. The Real Master Mix (Eppendorf, Westbury, N.Y.) was used for qRT-PCR reaction to quantify the cDNA level of target genes in different samples. The rplU was used as the endogenous control for data analysis. qRT-PCR data were analyzed using Relative Expression Software Tool as described (Pfaffl, M. W., Horgan, G. W., and Dempfle, L. (2002) Relative expression software tool (REST) for group-wise comparison and statistical analysis of relative expression results in real-time PCR. Nucleic Acids Res 30:e36.).

[6] = system: gacA mRNA; test: qRT-PCR relative mRNA level of gacA; conditions: MM supplemented with OCA, p>0.5 (FIG. 4)
Description: as §3

[7] = system: rsmB mRNA; test: qRT-PCR relative mRNA level of rsmB
Description: as §3

[8] = system: hrpN mRNA; test: qRT-PCR relative mRNA level of hrpN; conditions: 0.1 mM PCA, P=0.001 (FIG. 14)
Description: as §3

[9] = system: HrpN; test: HrpN protein expression; conditions: MM supplemented with 0.1 mM of PCA (FIG. 15)
From the text: To further elucidate whether T3SS gene expression is mainly regulated through the HrpX/Y-HrpS-HrpL regulatory pathway, the expression of hrpA and hrpN in wild-type Ech3937 and hrpX (WPP67), hrpY (WPP92), hrpS (WPP90), and hrpL (WPP96) mutants in MM were examined. […] Similar expression of hrpA and hrpN was observed among WPP67, WPP92, WPP90 and WPP96 carrying phrpA and phrpN grown in MM and MM supplemented with PCA. […] Since PCA represses the expression of several T3SS genes such as hrpN, the effect of PCA on protein production of HrpN was further examined.

[10] = MM + 0.1 mM compound, 12 h (Table 4)
[11] = hrpL mutant WPP96, MM + 0.1 mM compound, 12 h (Table 4)
[12] = MM + 0.1 mM PCA (MMPCA), 12 h (Table 10)
[13] = MM + 0.1 mM PCA (MMPCA), 24 h (Table 10)
[14] = MM + 0.1 mM PCA, 12 h (Table 10)
[15] = MM + 0.1 mM PCA, 24 h (Table 10)

O=C(O)/C=C/c1ccccc1O [OCA, o-coumaric acid]
promoter activity of hrpL compared with MM alone ([1]; Ech3937, MM + 0.1 mM compound, 12 h): slightly higher promoter activity
GFP intensity (Mean Fluorescence Intensity) of Ech3937 (phrpL) [1, 10]: 19 ± 0
GFP intensity (Mean Fluorescence Intensity) of WPP96 (phrpL) [1, 11]: 313 ± 29
GFP intensity of Ech3937 (phrpS) compared with MM alone ([2]; MM + 0.1 mM compound, 12 h): slightly lower GFP intensity
GFP intensity (Mean Fluorescence Intensity) of Ech3937 (phrpS) [2, 10]: 56 ± 1
GFP intensity (Mean Fluorescence Intensity) of WPP96 (phrpS) [2, 11]: 350 ± 17
mrp expression in Ech3937 (pmrp) compared with MM ([3]; MM + 0.1 mM compound, 12 h): slightly higher mrp expression
GFP intensity (Mean Fluorescence Intensity) of Ech3937 (pmrp) [3, 10]: 97.7 ± 1.6
GFP intensity (Mean Fluorescence Intensity) of Ech3937 (pPROBE-AT) ([4]; MM + 0.1 mM OCA, 6 h): 2.0 ± 0
GFP intensity (Mean Fluorescence Intensity) of Ech3937 (pPROBE-AT) ([4]; MM + 0.1 mM OCA, 12 h): 2.0 ± 0
GFP intensity (Mean Fluorescence Intensity) of Ech3937 (pPROBE-AT) ([4]; MM + 0.1 mM OCA, 24 h): 1.9 ± 0
GFP intensity (Mean Fluorescence Intensity) of Ech3937 (pPROBE-AT) [4, 10]: 2.0 ± 0
hrpY gene expression, MM vs supplemented MM (qRT-PCR) [5]: No significant difference
gacA gene expression, MM vs supplemented MM (qRT-PCR) [6]: No significant difference
rsmB mRNA relative expression ratio ([7]; Ech3937 in supplemented MM vs MM alone (normalized to 1)): 1.4

O=C(O)/C=C/c1ccc(O)cc1 [PCA, p-coumaric acid]
GFP intensity (Mean Fluorescence Intensity) of Ech3937 (phrpL) [1, 12]: 7.8 ± 0.1
GFP intensity (Mean Fluorescence Intensity) of Ech3937 (phrpL) [1, 13]: 11.1 ± 3.3
GFP intensity (Mean Fluorescence Intensity) of Ech3937 (phrpS) [2, 12]: 37.9 ± 1.3
GFP intensity (Mean Fluorescence Intensity) of Ech3937 (phrpS) [2, 13]: 43.6 ± 2.6
GFP intensity (Mean Fluorescence Intensity) of Ech3937 (pmrp) [3, 14]: 124.1 ± 2.7
GFP intensity (Mean Fluorescence Intensity) of Ech3937 (pmrp) [3, 15]: 98.9 ± 1.0
GFP intensity (Mean Fluorescence Intensity) of Ech3937 (pPROBE-AT) [4, 14]: 2.2 ± 0.2
GFP intensity (Mean Fluorescence Intensity) of Ech3937 (pPROBE-AT) ([4]; MM + 0.1 mM PCA, 12 h (Table 11)): 2.3 ± 0.1
GFP intensity (Mean Fluorescence Intensity) of Ech3937 (pPROBE-AT) [4, 15]: 14.0 ± 10.1
GFP intensity (Mean Fluorescence Intensity) of Ech3937 (pPROBE-AT) ([4]; MM + 0.1 mM PCA, 24 h (Table 11)): 4.9 ± 0.1
rsmB gene expression, MM vs supplemented MM (qRT-PCR) ([7]; MM supplemented with PCA, p=0.928 (FIG. 14)): No significant difference
hrpN mRNA compared with MM alone (normalized to 1), qRT-PCR [8]: significantly lower amount of mRNA
amount of HrpN protein compared with MM alone [9]: lower amount of HrpN
